# From US20110076293A1, “TRIPTOLIDE DERIVATIVES FOR MODULATION OF APOPTOSIS AND IMMUNOSUPPRESSION” (priority 2002, published 2011)
# Where two headings read alike, the source gives them in different places.
# Key:
# [1] = system: Jurkat human T lymphocyte cell line; assay: Apoptosis assay (Annexin V) of compounds incubated with human serum; details: for EC50: Homo sapiens, Jurkat
# Protocol: Compounds of formula I, as shown in Table 1 above and in the Examples, were assayed for their capacity to induce apoptosis in cells from the Jurkat human T lymphocyte cell line, after incubation with pooled human serum for varying periods of time at 37° C. (see Example 19). An ester prodrug, triptolide-14-succinate, designated PG490-88, was included for comparison. The extent of conversion to triptolide after such incubation was also independently determined by HPLC analysis.
# The ED50 values (column 3) are calculated directly from the data in each experiment, and the % conversion values (column 4) are calculated as percent of the ED50 value produced by triptolide, designated PG490, incubated in the same plasma (i.e. in the same experiment).
# A. Incubation of compounds with human serum. Pooled human serum was stored in aliquots at −80° C. Test compounds were added at 20 mM to thawed human serum in 1.5 ml microfuge tubes and incubated at 37° C. in a water bath for varying periods of time. The test samples were placed on ice until dilution for the bioassay. Controls consisted of the compounds incubated in complete tissue culture medium (RPMI 1640 medium plus 5% heat-inactivated fetal calf serum, 1% HEPES, 1% pen/strep, 1% glutamine) rather than human serum.
# B. Apoptosis assay of compounds incubated with human serum. Test samples were diluted to 1 mM in complete tissue culture medium. Aliquots were placed in microculture plates and serial dilutions were prepared so that the final concentration would encompass the range of 1 to 10,000 nM with half-log increments. Cells from an exponentially expanding culture of the Jurkat human T lymphocyte cell line (#TIB-152 obtained from American Type Culture Collection, Manassas, Va.) were harvested, washed once by centrifugation and dilution in complete tissue culture medium, and diluted to a concentration of 1×10^6 cells/ml. A volume of 100 μl of Jurkat cells (1×10^5 cells) was added to wells containing 100 μl of the diluted compounds, and the plates were incubated at 37° C. in a 5% CO2 incubator. After 24 hours, the plates were centrifuged to pellet the cells, and the cells were washed twice with 2% heat-inactivated fetal calf serum in PBS. To each well, 500 ul of binding buffer was added according to the Annexin V assay procedure (BioVision, Inc., Mountain View, Calif.). Next, 5 μl of the fluorescein isothiocyanate (FITC) conjugate of Annexin V (BioVision, Inc.) was added to each well, followed by 5 minutes of incubation in the dark. In some assays, propidium iodide (BioVision, Inc.) was added at this stage to check for necrotic cells. The contents of the wells were individually transferred into test tubes, and apoptosis was analyzed using a FACSCalibur flow cytometer (BD Immunocytometry Systems, San Jose, Calif.). Cells positive for Annexin V binding were considered to be apoptotic, and the data were calculated as percent apoptotic cells.
# C. Comparison of bioactivities after incubation of compounds in human serum. The data were plotted as the concentration of compound incubated in serum versus percent apoptotic cells. The concentration of compound inducing 50% apoptosis (ED50) was calculated from these dose response curves. […] This percentage conversion was used to compare the bioactivity of various compounds after incubation in human serum.
# [2] = system: IL-2 production in Jurkat human T lymphocyte cells; assay: IL-2 production assay for activity of compounds incubated with human serum; details: for bioactivity in IL-2 inhibition assays (in words): FIGS. 4-5; for IC50: Homo sapiens, Jurkat, 48 h, IL-2 production in Jurkat cells after incubation with pooled human serum for 48 hours at 37° C.; for Conversion (%): percent of the IC50 value produced by triptolide (PG490) in the same experiment, human serum 48 hours
# Protocol: Several compounds of formula I were analyzed for their capacity to inhibit IL-2 production in Jurkat human T lymphocyte cells, after incubation with pooled human serum for 48 hours at 37° C. (see Example 20). An ester prodrug, triptolide-14-succinate, designated PG490-88, was included for comparison.
# The IC50 values (column 1) are calculated directly from the data in each experiment. The % conversion values (column 2) are calculated as the percent of the IC50 value produced by triptolide, designated PG490, incubated in the same plasma (i.e. in the same experiment).
# A. IL-2 production assay for activity of compounds incubated with human serum. Test samples were diluted to 1 mM in complete tissue culture medium. […] Cells from an exponentially expanding culture of the Jurkat human T lymphocyte cell line (#TIB-152 obtained from American Type Culture Collection, Manassas, Va.) were harvested, washed once by centrifugation and dilution in complete tissue culture medium, and diluted to a concentration of 2×10^6 cells/ml. A volume of 50 μl of Jurkat cells (1×10^5 cells) was added to wells containing 100 μl of the diluted compounds, 50 μl of PMA (10 ng/ml) was added to each well, and the plates were incubated at 37° C. in a 5% CO2 incubator. After 24 hours, the plates were centrifuged to pellet the cells, 150 μl of supernatant was removed from each well, and the samples were stored at −20° C. The stored supernatants were analyzed for human IL-2 concentration using the Luminex 100 (Luminex Corporation, Austin, Tex.), Luminex microspheres coupled with anti-IL-2 capture antibody, and fluorochrome-coupled anti-IL-2 detection antibody. The data were expressed as ng/ml of IL-2.
# B. Comparison of bioactivities after incubation of compounds in human serum. The data were plotted as the concentration of compound incubated in serum versus IL-2 concentration. The concentration of compound inducing a 50% decrease in the IL-2 concentration (IC50) was calculated from these dose response curves. […] This percentage conversion was used to compare the bioactivity of various compounds after incubation in human serum.
# [3] = 48 h, read-out: ED50 (nM) in apoptosis assay after incubation with serum, incubation time in human serum 48 hours, 37° C.
# [4] = incubation time in human serum 48 hours
structure (smiles),measurement,setting,value
"CC(C)[C@]12O[C@H]1[C@@H]1O[C@]13[C@]1(O[C@H]1C[C@H]1C4=C(CC[C@@]13C)C(=O)OC4)[C@@H]2OC(=O)N1CCN(C)CC1 [PG672, N-methylpiperazinecarbonyl (carbamate)]",conversion in human serum (in words),[1],less readily converted
same,% apoptotic cells at given concentration (nM),"[1]; Table 4, medium, 10000 nM",48.6%
same,% apoptotic cells at given concentration (nM),"[1]; Table 4, serum, 0 hr, 10000 nM",47.6%
same,% apoptotic cells at given concentration (nM),"[1]; Table 4, serum, 48 hr, 0.03 nM",42.7%
same,% apoptotic cells at given concentration (nM),"[1]; Table 4, serum, 48 hr, 0.1 nM",45.2%
same,% apoptotic cells at given concentration (nM),"[1]; Table 4, serum, 48 hr, 0.3 nM",45.4%
same,% apoptotic cells at given concentration (nM),"[1]; Table 4, serum, 48 hr, 1 nM",45.9%
same,% apoptotic cells at given concentration (nM),"[1]; Table 4, serum, 48 hr, 3 nM",45.3%
same,% apoptotic cells at given concentration (nM),"[1]; Table 4, serum, 48 hr, 10 nM",46.0%
same,% apoptotic cells at given concentration (nM),"[1]; Table 4, serum, 48 hr, 30 nM",46.8%
same,% apoptotic cells at given concentration (nM),"[1]; Table 4, serum, 48 hr, 100 nM",46.6%
same,% apoptotic cells at given concentration (nM),"[1]; Table 4, serum, 48 hr, 300 nM",42.3%
same,% apoptotic cells at given concentration (nM),"[1]; Table 4, serum, 48 hr, 1000 nM",43.7%
same,% apoptotic cells at given concentration (nM),"[1]; Table 4, serum, 48 hr, 3000 nM",44.9%
same,% apoptotic cells at given concentration (nM),"[1]; Table 4, serum, 48 hr, 10000 nM",63.2%
same,apoptotic activity (in words),[1]; after 48 hr. incubation in human serum,activity at high concentrations
same,bioactivity in IL-2 inhibition assays (in words),[2],some level of bioactivity
same,IL-2 pg/mL at given concentration (nM),"[2]; Table 8, Jurkat cells, 0.0001 nM",103.3 pg/mL
same,IL-2 pg/mL at given concentration (nM),"[2]; Table 8, Jurkat cells, 0.001 nM",90.8 pg/mL
same,IL-2 pg/mL at given concentration (nM),"[2]; Table 8, Jurkat cells, 0.01 nM",99.1 pg/mL
same,IL-2 pg/mL at given concentration (nM),"[2]; Table 8, Jurkat cells, 0.1 nM",117.1 pg/mL
same,IL-2 pg/mL at given concentration (nM),"[2]; Table 8, Jurkat cells, 1 nM",91.4 pg/mL
same,IL-2 pg/mL at given concentration (nM),"[2]; Table 8, Jurkat cells, 10 nM",99.1 pg/mL
same,IL-2 pg/mL at given concentration (nM),"[2]; Table 8, Jurkat cells, 100 nM",64.6 pg/mL
same,IL-2 pg/mL at given concentration (nM),"[2]; Table 8, Jurkat cells, 1000 nM",26.8 pg/mL
same,IL-2 pg/mL at given concentration (nM),"[2]; Table 8, Jurkat cells, 10000 nM",8.7 pg/mL
"CC(C)[C@]12O[C@H]1[C@@H]1O[C@]13[C@]1(O[C@H]1C[C@H]1C4=C(CC[C@@]13C)C(=O)OC4)[C@@H]2OC(=O)O[C@H](C)C(=O)OC(C)(C)C [PG681, Triptolide 14-(R)-α-Methyl-tert-butoxycarbonylmethyl Carbonate]",EC50,"[1]; 1 h, read-out: ED50 (nM) in apoptosis assay after incubation with serum, incubation time in human serum 1 hour, 37° C.",684 nM
same,EC50,[1]; [3],139 nM
same,"Conversion, as relative ED50 compared to triptolide (%)",[1]; incubation time in human serum 1 hour,7%
same,"Conversion, as relative ED50 compared to triptolide (%)",[1]; [4],40%
same,IC50,[2],3 nM
same,Conversion (%),[2],55%
"CC(C)[C@]12O[C@H]1[C@@H]1O[C@]13[C@]1(O[C@H]1C[C@H]1C4=C(CC[C@@]13C)C(=O)OC4)[C@@H]2OC(=O)NCCN(C)C [PG688, Triptolide 14-Dimethylaminoethyl Carbamate]",conversion in human serum (in words),[1],less readily converted
same,% apoptotic cells at given concentration (nM),"[1]; Table 5, human serum (48 hrs), 1 nM",9.2%
same,% apoptotic cells at given concentration (nM),"[1]; Table 5, human serum (48 hrs), 3 nM",9.8%
same,% apoptotic cells at given concentration (nM),"[1]; Table 5, human serum (48 hrs), 10 nM",9.4%
same,% apoptotic cells at given concentration (nM),"[1]; Table 5, human serum (48 hrs), 30 nM",9.5%
same,% apoptotic cells at given concentration (nM),"[1]; Table 5, human serum (48 hrs), 100 nM",9.4%
same,% apoptotic cells at given concentration (nM),"[1]; Table 5, human serum (48 hrs), 300 nM",8.7%
same,% apoptotic cells at given concentration (nM),"[1]; Table 5, human serum (48 hrs), 1000 nM",8.6%
same,% apoptotic cells at given concentration (nM),"[1]; Table 5, human serum (48 hrs), 3000 nM",8.2%
same,% apoptotic cells at given concentration (nM),"[1]; Table 5, medium, 1 nM",13.0%
same,% apoptotic cells at given concentration (nM),"[1]; Table 5, medium, 3 nM",14.0%
same,% apoptotic cells at given concentration (nM),"[1]; Table 5, medium, 10 nM",12.1%
same,% apoptotic cells at given concentration (nM),"[1]; Table 5, medium, 30 nM",10.9%
same,% apoptotic cells at given concentration (nM),"[1]; Table 5, medium, 100 nM",11.2%
same,% apoptotic cells at given concentration (nM),"[1]; Table 5, medium, 300 nM",11.3%
same,% apoptotic cells at given concentration (nM),"[1]; Table 5, medium, 1000 nM",12.1%
same,% apoptotic cells at given concentration (nM),"[1]; Table 5, medium, 3000 nM",10.9%
same,bioactivity in IL-2 inhibition assays (in words),[2],some level of bioactivity
same,IL-2 pg/mL at given concentration (nM),"[2]; Table 7, Jurkat cells (48 hrs), 0.001 nM",883.9 pg/mL
same,IL-2 pg/mL at given concentration (nM),"[2]; Table 7, Jurkat cells (48 hrs), 0.01 nM",754.1 pg/mL
same,IL-2 pg/mL at given concentration (nM),"[2]; Table 7, Jurkat cells (48 hrs), 0.1 nM",810.4 pg/mL
same,IL-2 pg/mL at given concentration (nM),"[2]; Table 7, Jurkat cells (48 hrs), 1 nM",900.4 pg/mL
same,IL-2 pg/mL at given concentration (nM),"[2]; Table 7, Jurkat cells (48 hrs), 10 nM",796.3 pg/mL
same,IL-2 pg/mL at given concentration (nM),"[2]; Table 7, Jurkat cells (48 hrs), 100 nM",873.3 pg/mL
same,IL-2 pg/mL at given concentration (nM),"[2]; Table 7, Jurkat cells (48 hrs), 1000 nM",759.9 pg/mL
same,IL-2 pg/mL at given concentration (nM),"[2]; Table 7, Jurkat cells (48 hrs), 10000 nM",459.8 pg/mL
"CC(C)[C@]12O[C@H]1[C@@H]1O[C@]13[C@]1(O[C@H]1C[C@H]1C4=C(CC[C@@]13C)C(=O)OC4)[C@@H]2OC(=O)OC(C)(C)C [PG695, Triptolide 14-tert-Butyl Carbonate]",EC50,[1]; [3],59 nM
same,"Conversion, as relative ED50 compared to triptolide (%)",[1]; [4],100%
same,IC50,[2],100 nM
same,Conversion (%),[2],2%
